# Experimental data from ChEMBL document CHEMBL1201861, “Genomics of Drug Sensitity in Cancer screening data, Wellcome Trust Sanger Institute”.
# What was measured:
# Assay in all cases: cells
# RS4-11 = assay type: functional, cell-based, Homo sapiens; details: Homo sapiens, RS4-11;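 note: growth inhibition of RS4-11 cells, read out by a cell viability assay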
# Description: SANGER: Inhibition of human RS4-11 cell growth in a cell viability assay.
# LXF-289 cell line = assay type: functional, cell-based; details: Homo sapiens
# Description: SANGER: Inhibition of human LXF-289 cell growth in a cell viability assay.
# LU-139 = assay type: functional, cell-based, Homo sapiens; details: Homo sapiens, LU-139
# Description: SANGER: Inhibition of human LU-139 cell growth in a cell viability assay.
# NCI-H747 = assay type: functional, cell-based, Homo sapiens; details: Homo sapiens, NCI-H747;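 note: growth inhibition of human NCI-H747 cells, read out by a cell viability assay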
# Description: SANGER: Inhibition of human NCI-H747 cell growth in a cell viability assay.
# A388 = assay type: functional, cell-based; details: Homo sapiens;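 note: growth inhibition of human A388 cells, read out with a cell viability assay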
# Description: SANGER: Inhibition of human A388 cell growth in a cell viability assay.
# OS-RC-2 = assay type: functional, cell-based, Homo sapiens; details: Homo sapiens, OS-RC-2;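 note: growth inhibition of human OS-RC-2 cells, measured by a cell viability assay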
# Description: SANGER: Inhibition of human OS-RC-2 cell growth in a cell viability assay.
# ES3 = assay type: functional, cell-based, Homo sapiens; details: Homo sapiens, ES3;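 note: growth inhibition of ES3 cells, read out with a cell viability assay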
# Description: SANGER: Inhibition of human ES3 cell growth in a cell viability assay.
# MS-1 = assay type: functional, cell-based, Homo sapiens; details: Homo sapiens, MS-1;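 note: growth inhibition of MS-1 cells, read out by cell viability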
# Description: SANGER: Inhibition of human MS-1 cell growth in a cell viability assay.
# ES6 = assay type: functional, cell-based; details: Homo sapiens;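 note: growth inhibition of human ES6 cells, read out with a cell viability assay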
# Description: SANGER: Inhibition of human ES6 cell growth in a cell viability assay.
# LS-123 = assay type: functional, cell-based, Homo sapiens; details: Homo sapiens, LS-123
# Description: SANGER: Inhibition of human LS-123 cell growth in a cell viability assay.
# NCI-H1650 = assay type: functional, cell-based, Homo sapiens; details: Homo sapiens, NCI-H1650;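 note: growth inhibition of human NCI-H1650 cells measured by a cell viability assay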
# Description: SANGER: Inhibition of human NCI-H1650 cell growth in a cell viability assay.
# EW-18 = assay type: functional, cell-based, Homo sapiens; details: Homo sapiens, EW-18; read-out: IC50;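 note: growth inhibition of EW-18 cells, read out by a cell viability assay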
# Description: SANGER: Inhibition of human EW-18 cell growth in a cell viability assay.
# A4-Fuk = assay type: functional, cell-based, Homo sapiens; details: Homo sapiens, A4-Fuk;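 note: growth inhibition of A4-Fuk cells, read out by a cell viability assay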
# Description: SANGER: Inhibition of human A4-Fuk cell growth in a cell viability assay.
# QIMR-WIL = assay type: functional, cell-based, Homo sapiens; details: Homo sapiens, QIMR-WIL;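 note: growth inhibition of QIMR-WIL cells, read out with a cell viability assay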
# Description: SANGER: Inhibition of human QIMR-WIL cell growth in a cell viability assay.
# HAL-01 = assay type: functional, cell-based, Homo sapiens; details: Homo sapiens, HAL-01;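 note: growth inhibition of human HAL-01 cells, read out with a cell viability assay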
# Description: SANGER: Inhibition of human HAL-01 cell growth in a cell viability assay.
# LS-1034 = assay type: functional, cell-based, Homo sapiens; details: Homo sapiens, LS-1034
# Description: SANGER: Inhibition of human LS-1034 cell growth in a cell viability assay.
# KY821 = assay type: functional, cell-based, Homo sapiens; details: Homo sapiens, KY821;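 note: growth inhibition of human KY821 cells, read out by a cell viability assay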
# Description: SANGER: Inhibition of human KY821 cell growth in a cell viability assay.
# L-363 = assay type: functional, cell-based, Homo sapiens; details: Homo sapiens, L-363
# Description: SANGER: Inhibition of human L-363 cell growth in a cell viability assay.
# C8166 = assay type: functional, cell-based, Homo sapiens; details: Homo sapiens, C8166;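 note: growth inhibition of human C8166 cells measured by a cell viability assay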
# Description: SANGER: Inhibition of human C8166 cell growth in a cell viability assay.
# TGBC24TKB = assay type: functional, cell-based; details: Homo sapiens;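 note: growth inhibition of human TGBC24TKB cells, read out with a cell viability assay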
# Description: SANGER: Inhibition of human TGBC24TKB cell growth in a cell viability assay.
# JVM-3 = assay type: functional, cell-based, Homo sapiens; details: Homo sapiens, JVM-3;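 note: growth inhibition of human JVM-3 cells, read out with a cell viability assay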
# Description: SANGER: Inhibition of human JVM-3 cell growth in a cell viability assay.
# NKM-1 = assay type: functional, cell-based, Homo sapiens; details: Homo sapiens, NKM-1;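 note: growth inhibition of NKM-1 cells, read out with a cell viability assay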
# Description: SANGER: Inhibition of human NKM-1 cell growth in a cell viability assay.
# KG-1 = assay type: functional, cell-based, Homo sapiens; details: Homo sapiens, KG-1;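 note: growth inhibition of KG-1 cells, read out by a cell viability assay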
# Description: SANGER: Inhibition of human KG-1 cell growth in a cell viability assay.
# LAMA-84 = assay type: functional, cell-based, Homo sapiens; details: Homo sapiens, LAMA-84;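 note: growth inhibition of LAMA-84 cells, read out with a cell viability assay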
# Description: SANGER: Inhibition of human LAMA-84 cell growth in a cell viability assay.
# NCI-H69 = assay type: functional, cell-based, Homo sapiens; details: Homo sapiens, NCI-H69;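 note: growth inhibition of the cell line, read out with a cell viability assay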
# Description: SANGER: Inhibition of human NCI-H69 cell growth in a cell viability assay.
# KURAMOCHI = assay type: functional, cell-based, Homo sapiens; details: Homo sapiens, KURAMOCHI;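 note: growth inhibition of KURAMOCHI cells, read out with a cell viability assay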
# Description: SANGER: Inhibition of human KURAMOCHI cell growth in a cell viability assay.
# COLO-320-HSR = assay type: functional, cell-based, Homo sapiens; details: Homo sapiens, COLO-320-HSR;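 note: growth inhibition of COLO-320-HSR cells, determined with a cell viability assay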
# Description: SANGER: Inhibition of human COLO-320-HSR cell growth in a cell viability assay.
# LAN-6 = assay type: functional, cell-based, Homo sapiens; details: Homo sapiens, LAN-6;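 note: growth inhibition of LAN-6 cells, determined with a cell viability assay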
# Description: SANGER: Inhibition of human LAN-6 cell growth in a cell viability assay.
# SF-126 = assay type: functional, cell-based, Homo sapiens; details: Homo sapiens, SF-126;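 note: growth inhibition of human SF126 cells, read out with a cell viability assay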
# Description: SANGER: Inhibition of human SF126 cell growth in a cell viability assay.
# NCI-H23 = assay type: functional, cell-based, Homo sapiens; details: Homo sapiens, NCI-H23;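 note: cell viability assay measuring growth inhibition of NCI-H23 cells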
# Description: SANGER: Inhibition of human NCI-H23 cell growth in a cell viability assay.
# RKO = assay type: functional, cell-based, Homo sapiens; details: Homo sapiens, RKO;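 note: growth inhibition of human RKO cells, read out with a cell viability assay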
# Description: SANGER: Inhibition of human RKO cell growth in a cell viability assay.
# Lu-65 = assay type: functional, cell-based, Homo sapiens; details: Homo sapiens, Lu-65;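 note: growth inhibition of Lu-65 cancer cells, read out by a cell viability assay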
# Description: SANGER: Inhibition of human LU-65 cell growth in a cell viability assay.
# KE-37 = assay type: functional, cell-based, Homo sapiens; details: Homo sapiens, KE-37;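 note: growth inhibition of KE-37 cells, read out with a cell viability assay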
# Description: SANGER: Inhibition of human KE-37 cell growth in a cell viability assay.
# D-263MG = assay type: functional, cell-based, Homo sapiens; details: Homo sapiens, D-263MG
# Description: SANGER: Inhibition of human D-263MG cell growth in a cell viability assay.
# CTV-1 = assay type: functional, cell-based, Homo sapiens; details: Homo sapiens, CTV-1;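 note: growth inhibition of the cell line, read out with a cell viability assay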
# Description: SANGER: Inhibition of human CTV-1 cell growth in a cell viability assay.
# TE-11 = assay type: functional, cell-based; details: Homo sapiens;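 note: growth inhibition of human TE-11 cells, read out by a cell viability assay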
# Description: SANGER: Inhibition of human TE-11 cell growth in a cell viability assay.
# HDLM-2 = assay type: functional, cell-based, Homo sapiens; details: Homo sapiens, HDLM-2;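 note: cell viability assay measuring suppression of HDLM-2 proliferation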
# Description: SANGER: Inhibition of human HDLM-2 cell growth in a cell viability assay.
# NCI-H526 = assay type: functional, cell-based, Homo sapiens; details: Homo sapiens, NCI-H526;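 note: growth inhibition of the human NCI-H526 cell line, measured by a cell viability assay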
# Description: SANGER: Inhibition of human NCI-H526 cell growth in a cell viability assay.
# EKVX = assay type: functional, cell-based, Homo sapiens; details: Homo sapiens, EKVX;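 note: growth inhibition of human EKVX cells, read out with a cell viability assay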
# Description: SANGER: Inhibition of human EKVX cell growth in a cell viability assay.
# HH = assay type: functional, cell-based, Homo sapiens; details: Homo sapiens, HH
# Description: SANGER: Inhibition of human HH cell growth in a cell viability assay.
# LB1047-RCC = assay type: functional, cell-based, Homo sapiens; details: Homo sapiens, LB1047-RCC;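 note: inhibition of cell growth, determined with a cell viability assay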
# Description: SANGER: Inhibition of human LB1047-RCC cell growth in a cell viability assay.
# AM-38 = assay type: functional, cell-based, Homo sapiens; details: Homo sapiens, AM-38;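 note: growth inhibition of AM-38 cells of human origin, read out by a cell viability assay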
# Description: SANGER: Inhibition of human AM-38 cell growth in a cell viability assay.
# SNU-5 = assay type: functional, cell-based, Homo sapiens; details: Homo sapiens, SNU-5;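 note: cell viability readout used to measure growth inhibition in human NCI-SNU-5 cells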
# Description: SANGER: Inhibition of human NCI-SNU-5 cell growth in a cell viability assay.
# SW684 = assay type: functional, cell-based, Homo sapiens; details: Homo sapiens, SW684; read-out: IC50;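 note: growth inhibition of human SW684 cells, measured by a cell viability assay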
# Description: SANGER: Inhibition of human SW684 cell growth in a cell viability assay.
# NCI-H82 = assay type: functional, cell-based, Homo sapiens; details: Homo sapiens, NCI-H82;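 note: growth inhibition of NCI-H82 cells, measured with a cell viability readout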
# Description: SANGER: Inhibition of human NCI-H82 cell growth in a cell viability assay.
# LC-2-ad = assay type: functional, cell-based, Homo sapiens; details: Homo sapiens, LC-2-ad;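 note: growth inhibition of human LC-2-ad cells, read out with a cell viability assay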
# Description: SANGER: Inhibition of human LC-2-ad cell growth in a cell viability assay.
# LU-134-A = assay type: functional, cell-based, Homo sapiens; details: Homo sapiens, LU-134-A
# Description: SANGER: Inhibition of human LU-134-A cell growth in a cell viability assay.
# RCC10RGB = assay type: functional, cell-based, Homo sapiens; details: Homo sapiens, RCC10RGB;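 note: growth inhibition of human RCC10RGB cells, read out by a cell viability assay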
# Description: SANGER: Inhibition of human RCC10RGB cell growth in a cell viability assay.
# SH-4 = assay type: functional, cell-based; details: Homo sapiens;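 note: growth inhibition of SH-4 cells, read out with a cell viability assay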
# Description: SANGER: Inhibition of human SH-4 cell growth in a cell viability assay.
# JVM-2 = assay type: functional, cell-based, Homo sapiens; details: Homo sapiens, JVM-2;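 note: growth inhibition of JVM-2 cells determined by a cell viability assay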
# Description: SANGER: Inhibition of human JVM-2 cell growth in a cell viability assay.
compound,measurement,setting,value
C/C(=C\c1csc(C)n1)[C@@H]1C[C@@H]2O[C@]2(C)CCC[C@H](C)[C@H](O)[C@@H](C)C(=O)C(C)(C)[C@@H](O)CC(=O)O1 [PATUPILONE],IC50,RS4-11,2.02 nM
same,IC50,LXF-289 cell line,0.227 nM
same,IC50,LU-139,> 32 nM
same,IC50,NCI-H747,2.54 nM
same,IC50,A388,0.94 nM
same,IC50,OS-RC-2,1.21 nM
same,IC50,ES3,15 nM
same,IC50,MS-1,10.2 nM
same,IC50,ES6,11.2 nM
same,IC50,LS-123,0.96 nM
same,IC50,NCI-H1650,9.54 nM
same,IC50,EW-18,2.63 nM
same,IC50,A4-Fuk,1.09 nM
same,IC50,QIMR-WIL,1.19 nM
same,IC50,HAL-01,5.02 nM
same,IC50,LS-1034,0.912 nM
same,IC50,KY821,> 32 nM
same,IC50,L-363,5.88 nM
same,IC50,C8166,31.7 nM
same,IC50,TGBC24TKB,2.75 nM
same,IC50,JVM-3,> 32 nM
same,IC50,NKM-1,2.1 nM
same,IC50,KG-1,5.1 nM
same,IC50,LAMA-84,18.9 nM
same,IC50,NCI-H69,14.8 nM
same,IC50,KURAMOCHI,6.05 nM
same,IC50,COLO-320-HSR,5.21 nM
same,IC50,LAN-6,> 32 nM
same,IC50,SF-126,3.47 nM
same,IC50,NCI-H23,23.8 nM
same,IC50,RKO,0.0647 nM
same,IC50,Lu-65,21 nM
same,IC50,KE-37,1.91 nM
same,IC50,D-263MG,> 32 nM
same,IC50,CTV-1,5.16 nM
same,IC50,TE-11,1.2 nM
same,IC50,HDLM-2,19.5 nM
same,IC50,NCI-H526,7.24 nM
same,IC50,EKVX,> 32 nM
same,IC50,HH,9.8 nM
same,IC50,LB1047-RCC,2 nM
same,IC50,AM-38,7.56 nM
same,IC50,SNU-5,30.4 nM
same,IC50,SW684,> 32 nM
same,IC50,NCI-H82,> 32 nM
same,IC50,LC-2-ad,< 0.125 nM
same,IC50,LU-134-A,15.8 nM
same,IC50,RCC10RGB,19.7 nM
same,IC50,SH-4,7.73 nM
same,IC50,JVM-2,> 32 nM
CN(C)CCOc1ccc(-c2nc(-c3ccncc3)c(-c3ccc4c(c3)CC/C4=N\O)[nH]2)cc1 [SB590885],IC50,RS4-11,> 5000 nM
same,IC50,LXF-289 cell line,> 5000 nM
same,IC50,LU-139,> 5000 nM
same,IC50,NCI-H747,> 5000 nM
same,IC50,A388,> 5000 nM
same,IC50,OS-RC-2,> 5000 nM
same,IC50,ES3,> 5000 nM
same,IC50,MS-1,> 5000 nM
same,IC50,ES6,> 5000 nM
same,IC50,LS-123,> 5000 nM
same,IC50,NCI-H1650,> 5000 nM
same,IC50,EW-18,> 5000 nM
same,IC50,A4-Fuk,> 5000 nM
same,IC50,QIMR-WIL,> 5000 nM
same,IC50,HAL-01,2930 nM
same,IC50,LS-1034,> 5000 nM
same,IC50,KY821,> 5000 nM
same,IC50,L-363,4690 nM
same,IC50,C8166,> 5000 nM
same,IC50,TGBC24TKB,> 5000 nM
same,IC50,JVM-3,> 5000 nM
same,IC50,NKM-1,1670 nM
same,IC50,KG-1,> 5000 nM
same,IC50,LAMA-84,> 5000 nM
same,IC50,NCI-H69,> 5000 nM
same,IC50,KURAMOCHI,> 5000 nM
same,IC50,COLO-320-HSR,> 5000 nM
same,IC50,LAN-6,> 5000 nM
same,IC50,SF-126,> 5000 nM
same,IC50,NCI-H23,> 5000 nM
same,IC50,RKO,> 5000 nM
same,IC50,Lu-65,> 5000 nM
same,IC50,KE-37,> 5000 nM
same,IC50,D-263MG,> 5000 nM
same,IC50,CTV-1,> 5000 nM
same,IC50,TE-11,> 5000 nM
same,IC50,HDLM-2,> 5000 nM
same,IC50,NCI-H526,> 5000 nM
same,IC50,EKVX,> 5000 nM
same,IC50,HH,> 5000 nM
same,IC50,LB1047-RCC,> 5000 nM
same,IC50,AM-38,> 5000 nM
same,IC50,SNU-5,1580 nM
same,IC50,SW684,> 5000 nM
same,IC50,NCI-H82,> 5000 nM
same,IC50,LC-2-ad,> 5000 nM
same,IC50,LU-134-A,> 5000 nM
same,IC50,RCC10RGB,> 5000 nM
same,IC50,SH-4,812 nM
same,IC50,JVM-2,> 5000 nM
